According to ChEMBL document CHEMBL1165895, “A novel series of cytotoxic iridoid glucosides derived from aucubin: design, synthesis and structure-activity relationships” (Eur J Med Chem, 2010):

Legend:
L1210 [1] = experiment: Cytotoxicity against mouse L1210 cells after 48 hrs by microculture tetrazolium assay; assay type: functional, cell-based; conditions: L1210, 48 h
[2] = Cytotoxicity against human KB3-1 cells after 96 hrs by microculture tetrazolium assay; assay type: functional, cell-based; conditions: KB 3-1, 96 h
L1210 [3] = experiment: Cell cycle arrest in mouse L1210 cells assessed as accumulation at G2M phase at 10 uM after 21 hrs using propidium iodide staining by flow cytometry; assay type: functional
L1210 [4] = experiment: Cell cycle arrest in mouse L1210 cells assessed as accumulation at G1 phase at 10 uM after 21 hrs using propidium iodide staining by flow cytometry; assay type: functional
L1210 [5] = experiment: Cell cycle arrest in mouse L1210 cells assessed as accumulation at S phase at 10 uM after 21 hrs using propidium iodide staining by flow cytometry; assay type: functional

SMILES: CC1=C[C@@H](OC(=O)C(C)(C)C)C2=CC(=O)O[C@@H](O[C@@H]3O[C@H](COC(=O)C(C)(C)C)[C@@H](OC(=O)C(C)(C)C)[C@H](OC(=O)C(C)(C)C)[C@H]3OC(=O)C(C)(C)C)[C@H]12
- IC50 (L1210 [1]): 24.8 µM
- IC50 [2]: 7.2 µM

SMILES: CC(C)(C)C(=O)OCC1=C[C@@H](OC(=O)C(C)(C)C)C2=CC(=O)O[C@@H](O[C@@H]3O[C@H](COC(=O)C(C)(C)C)[C@@H](OC(=O)C(C)(C)C)[C@H](OC(=O)C(C)(C)C)[C@H]3OC(=O)C(C)(C)C)[C@H]12
- IC50 (L1210 [1]): 4 µM
- Activity (L1210 [3]): 45%
- Activity (L1210 [4]): 36%
- IC50 [2]: 0.42 µM
- Activity (L1210 [5]): 19%
